Columns and labels:
[1] = tested on: Monocotyledonous and dicotyledonous test plants; assay: Example B1 herbicidal action, application pre-emergence (Table B1b); format: in vivo; conditions: 250 g/ha, evaluated after 4 weeks
Summary of the method: (§1)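 Visual damage rating, 10 = plant dead and 0 = unharmed, taken at 3 weeks for post-emergence and 4 weeks for pre-emergence treatment. Application by spray of formulated aqueous solution either immediately after sowing or at 8–9 days' growth, with mono- and dicot plants kept in a greenhouse.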

[2] = tested on: Monocotyledonous and dicotyledonous test plants; assay: Example B2 herbicidal action, application pre-emergence, 96-cell seed trays (Table B2b); format: in vivo; conditions: 1000 g/ha
Description: Monocotyledonous and dicotyledonous test plants were sown in sterilised standard soil in seed trays each having 96 cells. After one day (pre-emergence) or after 8 to 9 days cultivation (post-emergence) under controlled conditions in a climatic chamber (cultivation at 17/23° C.; 13 hours light; 50-60% humidity; after application at 19/24° C.), the plants were treated with an aqueous spray solution of 1000 mg/l of the active ingredient used (rate of application: […]; incl. 10% DMSO as solvent). The plants were grown on in the climatic chamber until the test was evaluated (10 total damage to plant, 0=no damage to plant) after 9 or 13 days.

[3] = tested on: Monocotyledonous and dicotyledonous test plants; assay: Example B1 herbicidal action, application post-emergence (Table B1a); format: in vivo; conditions: 250 g/ha, evaluated after 3 weeks, scale 0-10
Summary of the method: as §1

Row | SMILES | melting point | herbicidal action (damage rating 0-10), Amaranthus [1] | herbicidal action (damage rating 0-10), Digitaria [1] | herbicidal action (damage rating 0-10), Panicum [1] | herbicidal action (damage rating 0-10), Setaria [1] | herbicidal action (damage rating 0-10), Sida [1] | herbicidal action (damage rating 0-10), Agrostis [2] | herbicidal action (damage rating 0-10), Digitaria [2] | herbicidal action (damage rating 0-10), Poa [2] | herbicidal action (damage rating 0-10), Setaria [2] | herbicidal damage rating, Abutilon [3] | herbicidal damage rating, Amaranthus [3] | herbicidal damage rating, Digitaria [3] | herbicidal damage rating, Panicum [3] | herbicidal damage rating, Setaria [3] | herbicidal damage rating, Sida [3]
1 | COCC(c1c(F)cccc1F)S(=O)(=O)C1=NOC(C)(C)C1 (stereo not drawn) [Compound No. 1.51, 3-[1-(2,6-difluoro-phenyl)-2-methoxy-ethanesulfonyl]-5,5-dimethyl-4,5-dihydroisoxazole] | 102 °C | 8 | 9 | 9 | 8 | 0 | – | – | – | – | – | – | – | – | – | –
2 | C=CC1CC1(c1c(F)cccc1F)S(=O)(=O)C1=NOC(C)(C)C1 (stereo not drawn) [Compound No. 1.46, 3-[1-(2,6-difluoro-phenyl)-2-vinylcylopropane-sulfonyl]-5,5-dimethyl-4,5-dihydroisoxazole] | 117 °C | 3 | 6 | 5 | 3 | 0 | – | – | – | – | – | – | – | – | – | –
3 | CC1(C)CC(S(=O)(=O)C(Br)c2c(F)cccc2F)=NO1 (stereo not drawn) [Compound No. 1.19, 3-[bromo-(2,6-difluorophenyl)-methanesulfonyl]-5,5-dimethyl-4,5-dihydroisoxazole] | 135 °C | 10 | 10 | 10 | 10 | 6 | 10 | 9 | 10 | 9 | 6 | 5 | 6 | 5 | 5 | 2
4 | Cc1cccc(C(Cl)S(=O)(=O)C2=NOC(C)(C)C2)c1 (stereo not drawn) [Compound No. 1.30, 3-[chloro-m-tolyl-methanesulfonyl]-5,5-dimethyl-4,5-dihydroisoxazole] | 102 °C | 0 | 9 | 10 | 9 | 2 | 10 | 10 | 10 | 10 | – | – | – | – | – | –
5 | CC1(C)CC(S(=O)(=O)C(Cl)(Cl)c2c(F)cccc2F)=NO1 [Compound No. 1.26, 3-[dichloro-(2,6-difluoro-phenyl)-methanesulfonyl]-5,5-dimethyl-4,5-dihydroisoxazole] | 126 °C | 10 | 9 | 10 | 10 | 4 | 10 | 10 | 10 | 9 | 4 | – | 4 | 3 | 5 | –
6 | CC1(C)CC(S(=O)(=O)C(Cl)(Br)c2c(F)cccc2F)=NO1 (stereo not drawn) [Compound No. 1.53, 3-[bromo-chloro-(2,6-difluorophenyl)-methanesulfonyl]-5,5-dimethyl-4,5-dihydroisoxazole] | 119 °C | 9 | 10 | 10 | 10 | 5 | – | – | – | – | 5 | 7 | 7 | 7 | 7 | 2
7 | Cc1onc(C2CC2)c1C(Cl)S(=O)(=O)C1=NOC(C)(C)C1 (stereo not drawn) [Compound No. 3.07, 4-[chloro-(5,5-dimethyl-4,5-dihydroisoxazole-3-sulfonyl)methyl]-3-cyclopropyl-5-methyl-isoxazole] | 159 °C | 4 | 9 | – | 8 | 2 | – | – | – | – | – | – | – | – | – | –
8 | CC1(C)CC(S(=O)(=O)C(I)c2c(F)cccc2F)=NO1 (stereo not drawn) [Compound No. 1.25, 3-[(2,6-difluoro-phenyl)-iodo-methanesulfonyl]-5,5-dimethyl-4,5-dihydroisoxazole] | 156 °C | 10 | 10 | 10 | 10 | 3 | 10 | 9 | 10 | 8 | 5 | – | 4 | 3 | 3 | 4
9 | CC1(C)CC(S(=O)(=O)C(C(N)=O)c2c(F)cccc2F)=NO1 (stereo not drawn) [Compound No. 1.23, 2-(2,6-difluoro-phenyl)-2-(5,5-dimethyl-4,5-dihydroisoxazole-3-sulfonyl)-acetamide] | 175 °C | 7 | 4 | 10 | 7 | 0 | 10 | 8 | 10 | 8 | – | – | – | – | – | –
10 | CC1(C)CC(S(=O)(=O)C(C)(F)c2ccccc2)=NO1 (stereo not drawn) [Compound No. 1.138, 3-(1-fluoro-1-phenyl-ethanesulfonyl)-5,5-dimethyl-4,5-dihydroisoxazole] | 91 to 93 °C | – | – | – | – | – | – | – | – | – | – | – | – | – | – | –
11 | Cc1cccc(C(Cl)(Cl)S(=O)(=O)C2=NOC(C)(C)C2)c1 [Compound No. 1.31, 3-[dichloro-m-tolyl-methanesulfonyl]-5,5-dimethyl-4,5-dihydroisoxazole] | 89 °C | 0 | 9 | 9 | 7 | 0 | 9 | 9 | 9 | 10 | 3 | – | 1 | 7 | 0 | 7
12 | COc1cc(C(F)S(=O)(=O)C2=NOC(C)(C)C2)on1 (stereo not drawn) [Compound No. 5.03, 5-[(5,5-dimethyl-4,5-dihydroisoxazole-3-sulfonyl)-fluoromethyl]-3-methoxy-isoxazole] | 99 °C | 10 | – | – | 9 | 2 | – | – | – | – | – | – | – | – | – | –

From patent publication US8680290B2, “Isoxazoline derivatives and their use as herbicides” (Syngenta Limited, priority 2004, dated 2014)
